Tested on: single-round infectious reporter virus with HIV-1 LAI envelope
Assay: Single-round infectious HIV-1 LAI luciferase reporter virus infection of MT2 cells
Format: cell-based
Settings: Human immunodeficiency virus 1, MT2, 72 h
Text: • Virus production—Human embryonic Kidney cell line, 293T (HEK 293T), was propagated in Dulbecco's Modified Eagle Medium (Invitrogen, Carlsbad, Calif.) containing 10% fetal Bovine serum (FBS, Sigma, St. Louis, Mo.). The human T-cell leukemia cell MT2 (AIDS Research and Reference Reagent Program, Cat. 237) was propagated in RPMI 1640 (Invitrogen, Carlsbad, Calif.) containing 10% fetal bovine serum (FBS, Hyclone, Logan, Utah) • Virus infection—Single-round infectious reporter virus was produced by co-transfecting HEK 293T cells with plasmide expressing the HIV-1 LAI envelope along with a plasmid containing an HIV-1 LAI proviral cDNA with the envelope gene replaced by a firefly luciferase reporter gene (Chen et al, Ref 41). Transfections were performed using lipofectAMINE PLUS reagent as described by the manufacturer (Invitrogen, Carlsbad, Calif.).
• 1. MT2 cells were plated in black, 384 well plates at a cell density of 5×10^3 cells per well in 25 μl RPMI 1640 containing 10% FBS. • 2. Compound (diluted in dimethylsulfoxide and growth medium) was added to cells at 12.5 μl/well, so that the final assay concentration would be ≦50 nM. • 3. 12.5 μl of single-round infectious reporter virus in Dulbecco's Modified Eagle Medium was added to the plated cells and compound at an approximate multiplicity of infection (MOI) of 0.01, resulting in a final volume of 50 μl per well. • 4. Virus-infected cells were incubated at 37 degrees Celsius, in a CO2 incubator, and harvested 72 h after infection. • 5. Viral infection was monitored by measuring luciferase expression in the infected cells using a luciferase reporter gene assay kit (Steady-Glo, Promega, Madison, Wis.) as described by the manufacturer. Luciferase activity was then quantified by measuring luminescence using an EnVision Multilabel Plate Readers (PerkinElmer, Waltham, Mass.). • 6. The percent inhibition for each compound was calculated by quantifying the level of luciferase expression in cells infected in the presence of each compound as a percentage of that observed for cells infected in the absence of compound and subtracting such a determined value from 100. • 7. An EC50 provides a method for comparing the antiviral potency of the compounds of this disclosure. The effective concentration for fifty percent inhibition (EC50) was calculated with the Microsoft Excel Xlfit curve fitting software. For each compound, curves were generated from percent inhibition calculated at 10 different concentrations by using a four paramenter logistic model (model 205). Table 1 is the key for the data in Table 2.

**Q.** For CCC(=O)N1CCN(C(=O)C(=O)c2c[nH]c3c(-n4cnc(C)n4)ncc(OC)c23)CC1 [Compound 2050], which EC50 is on record?
**A.** 10.4 nM

Same assay, conditions: Human immunodeficiency virus 1, MT2, 72 h, read-out: EC50 Group from Table 1

**Q.** Which EC50 does the source give for COCCOCC(=O)N1CCN(C(=O)C(=O)c2c[nH]c3c(-n4ccnn4)ncc(F)c23)CC1 [Compound 2047] here?
**A.** > 500 nM

**Q.** Which EC50 does the source give for COCC(=O)N1CCN(C(=O)C(=O)c2c[nH]c3c(-n4cnc(C)n4)ncc(OC)c23)CC1 [Compound 2048] here?
**A.** < 500 nM

**Q.** Which EC50 does the source give for COc1cnc(-n2cnc(C)n2)c2[nH]cc(C(=O)C(=O)N3CCN(C(=O)CN(C)C)CC3)c12 [Compound 2049] here?
**A.** > 500 nM

**Q.** Which EC50 does the source give for CCC(=O)N1CCN(C(=O)C(=O)c2c[nH]c3c(-n4cnc(C)n4)ncc(OC)c23)CC1 [Compound 2050] here?
**A.** < 500 nM

**Q.** COCCOCC(=O)N1CCN(C(=O)C(=O)c2c[nH]c3c(-n4cnc(C)n4)ncc(OC)c23)CC1 [Compound 2051] was tested. Which EC50 did it give?
**A.** > 500 nM

Reference: patent publication US8912195B2, “Alkyl amides as HIV attachment inhibitors” (priority 2010, dated 2014)
